From patent US20230042612A1, “METHODS OF CONTROLLING OR PREVENTING INFESTATION OF PLANTS BY A PHYTOPATHOGENIC MICROORGANISM OF THE GENUS MACROPHOMINA SPP” (SYNGENTA CROP PROTECTION AG, priority 2019, published 2023)

System: Macrophomina phaseolina
Assay: Strawberry pot trial in the greenhouse, soil drench at planting, efficacy against Macrophomina phaseolina
Type: in vivo
Settings: 250 g AI/ha drench at planting, strawberry 'Sweet Ann'; for Pest severity (IS 0-5; 0 = no damage, 5 = severe damage): 6 replications
Protocol: A strawberry pot trial was carried out in the greenhouse Vero Beach, United States to evaluate the efficacy of different compounds against Macrophomina phaseolina.
The plants were planted in 4 L pots with Vero Beach Mix (50% potting media and 50% pasteurized sand). The plants were bare root strawberry of the variety ‘Sweet Ann’. The strawberry plants were partially planted, then were inoculated with 2 grams of the infested millet. The inoculum was grown on twice sterilized millet for 1-2 weeks. The isolate used was originally isolated from strawberry. After the inoculation the roots were completely covered. At the day of planting each plant was drench applied with 100 mL of compound solution. The application dose was calculated based on a plant spacing of 30.5 cm by 45.7 cm. The plants were grown in a greenhouse that averaged 32° C. in the day and 21° C. at night. Plants were watered daily. The disease severity was evaluated after 44 and 65 days after application using a […] index scale (5=severe damage, 0=no damage).

[1] = 65 days after application (second assessment)

In the case of O=C(NCCc1ncc(C(F)(F)F)cc1Cl)c1ccccc1C(F)(F)F [Fluopyram], the “% efficacy based on disease incidence” value (44 days after planting) is reported as 44.33%, the “Pest severity (IS 0-5; 0 = no damage, 5 = severe damage)” value (44 days after planting) is reported as 1.67,A and the “% efficacy based on disease incidence” value [1] is reported as 1.60%. The “Pest severity (IS 0-5; 0 = no damage, 5 = severe damage)” value [1] was 4.92,A.
